Reference: ChEMBL document CHEMBL1201862, “PubChem BioAssay data set” (2004)
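Assay format: 96-well plates, 48-hour exposure. GI50 = concentration required for 50% inhibition of growth.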 The source made the active and inactive calls. Cut-off read from the data, not from the text of the source: active = GI50 up to about 1.1 µM and inactive = higher.

Key:
Assay in all cases: growth of human tumour cells (NCI), 48 h
[1] = system: MOLT-4
[2] = system: NCI-H226
[3] = system: CCRF-CEM
[4] = system: OVCAR-3
[5] = system: Hs-578T
[6] = system: SK-MEL-28
[7] = system: HOP-62
[8] = system: SF-295
[9] = system: HT-29
[10] = system: T47D
[11] = system: A549
[12] = system: SNB-19
[13] = system: NCI-H23
[14] = system: U-251
[15] = system: MDA-MB-435
[16] = system: PC-3
[17] = system: OVCAR-4
[18] = system: TK-10
[19] = system: Malme-3M
[20] = system: SR

Structure (SMILES) | GI50 [1] | GI50 [2] | GI50 [3] | GI50 [4] | GI50 [5] | GI50 [6] | GI50 [7] | GI50 [8] | GI50 [9] | GI50 [10] | GI50 [11] | GI50 [12] | GI50 [13] | GI50 [14] | GI50 [15] | GI50 [16] | GI50 [17] | GI50 [18] | GI50 [19] | GI50 [20]
CCOP(=O)(CN1CCNCCN(CP(=O)(OCC)OCC)CC1)OCC | > 100 µM (inactive) | > 100 µM (inactive) | > 31.6 µM (inactive) | > 100 µM (inactive) | > 100 µM (inactive) | > 100 µM (inactive) | > 100 µM (inactive) | > 100 µM (inactive) | > 100 µM (inactive) | > 100 µM (inactive) | > 100 µM (inactive) | > 100 µM (inactive) | > 100 µM (inactive) | > 100 µM (inactive) | > 100 µM (inactive) | > 100 µM (inactive) | > 100 µM (inactive) | > 100 µM (inactive) |  | 
CC(CNC(N)=O)NC(N)=O (stereo not drawn) | > 100 µM (inactive) | > 100 µM (inactive) | > 100 µM (inactive) | > 100 µM (inactive) | > 100 µM (inactive) | > 100 µM (inactive) | > 100 µM (inactive) | > 100 µM (inactive) | > 100 µM (inactive) | > 100 µM (inactive) | > 100 µM (inactive) | > 100 µM (inactive) | > 100 µM (inactive) | > 100 µM (inactive) | > 100 µM (inactive) | > 100 µM (inactive) | > 100 µM (inactive) | > 100 µM (inactive) | > 100 µM (inactive) | 
CN(C)c1ccc(/C=C(\NC(=O)c2ccccc2)C(=O)NC(Cc2c[nH]c3ccccc23)C(=O)O)cc1 (stereo not drawn) | > 100 µM (inactive) | > 100 µM (inactive) | > 100 µM (inactive) | > 100 µM (inactive) | > 100 µM (inactive) | > 100 µM (inactive) | 34.4 µM (inactive) | > 100 µM (inactive) | > 100 µM (inactive) | > 100 µM (inactive) | > 100 µM (inactive) | > 100 µM (inactive) | > 100 µM (inactive) | > 100 µM (inactive) | > 100 µM (inactive) | > 100 µM (inactive) | > 100 µM (inactive) | > 100 µM (inactive) | > 100 µM (inactive) | 
CCOC(=O)c1nnsc1NC(=O)Nc1ccc(Cc2ccc(NC(=O)Nc3snnc3C(=O)OCC)cc2)cc1 | > 100 µM (inactive) | 31.9 µM (inactive) | > 100 µM (inactive) | > 100 µM (inactive) | 69.5 µM (inactive) | > 100 µM (inactive) | 32.7 µM (inactive) | 70 µM (inactive) | 61 µM (inactive) | 45.8 µM (inactive) | 46.1 µM (inactive) | 39.1 µM (inactive) | 43.6 µM (inactive) | 31.3 µM (inactive) | 93.1 µM (inactive) | 66.4 µM (inactive) | 35.6 µM (inactive) | > 100 µM (inactive) | 37.2 µM (inactive) | 
Cc1c(C(=O)Nc2ccccc2)nnn1-c1ccnc2cc(C(F)(F)F)ccc12 | 34 µM (inactive) | 57.4 µM (inactive) | 39.4 µM (inactive) | 67.1 µM (inactive) | > 100 µM (inactive) | > 100 µM (inactive) |  | 46.7 µM (inactive) | 80.2 µM (inactive) | 32.4 µM (inactive) | 89.5 µM (inactive) | 33.5 µM (inactive) | 50.6 µM (inactive) | 68.4 µM (inactive) | 40.8 µM (inactive) | 30.1 µM (inactive) | 34.5 µM (inactive) | 85.5 µM (inactive) | 37 µM (inactive) | 
Nc1ccc(-c2nc3ccccc3s2)cc1Br | 31.4 µM (inactive) |  | 32 µM (inactive) | < 0.01 µM (active) | 24 µM (inactive) | > 100 µM (inactive) | 29.9 µM (inactive) | 66.7 µM (inactive) | > 100 µM (inactive) | 58.1 µM (inactive) | > 100 µM (inactive) | 60.4 µM (inactive) | 63.7 µM (inactive) | 57.5 µM (inactive) | > 100 µM (inactive) | 69.7 µM (inactive) | > 100 µM (inactive) | 0.0141 µM (active) | > 100 µM (inactive) | > 94.8 µM (inactive)
Cc1cc2nc(C=C(C(F)(F)F)C(F)(F)F)oc2cc1C | 1.85 µM (inactive) |  | 1.06 µM (active) | 1.95 µM (inactive) | 3.37 µM (inactive) | > 10 µM (inactive) | 3.83 µM (inactive) | > 10 µM (inactive) | 3.04 µM (inactive) | 2.94 µM (inactive) | 5.12 µM (inactive) | 3.45 µM (inactive) | 2.49 µM (inactive) | 3.33 µM (inactive) | 2.14 µM (inactive) | 2.47 µM (inactive) | 3.18 µM (inactive) | 2.45 µM (inactive) | 1.97 µM (inactive) | 2.22 µM (inactive)
CCOC(=O)c1c(C)n(C)c2c1cc(O)c1[nH]c3c(c12)CCCC3 | 16.9 µM (inactive) |  | 20.3 µM (inactive) | 5.62 µM (inactive) | 32.7 µM (inactive) | 17.5 µM (inactive) | 38.3 µM (inactive) | 39.1 µM (inactive) | 18.8 µM (inactive) | 18.2 µM (inactive) | 18 µM (inactive) | 38.4 µM (inactive) | 21 µM (inactive) | 18.2 µM (inactive) | 13.4 µM (inactive) | 18.3 µM (inactive) | 10.8 µM (inactive) | 22.9 µM (inactive) | 7.66 µM (inactive) | 
CC(C)/C(Cl)=N\OC(=O)Nc1ccccc1F | 2.82 µM (inactive) | 15.1 µM (inactive) | 0.741 µM (active) | 17.7 µM (inactive) | 25.9 µM (inactive) | 16.6 µM (inactive) | > 41.1 µM (inactive) | 16.3 µM (inactive) | 24.3 µM (inactive) | 20.9 µM (inactive) | 18.7 µM (inactive) | > 42.9 µM (inactive) | 17.7 µM (inactive) | 17.3 µM (inactive) |  | 17.2 µM (inactive) | 17.3 µM (inactive) | 14.5 µM (inactive) | 3.94 µM (inactive) | 2.25 µM (inactive)
NC(C(=O)O)C(N)C(=O)O (stereo not drawn) | > 100 µM (inactive) | > 100 µM (inactive) |  | > 100 µM (inactive) | > 100 µM (inactive) | > 100 µM (inactive) | > 100 µM (inactive) | > 100 µM (inactive) | > 100 µM (inactive) | > 100 µM (inactive) | > 100 µM (inactive) | > 100 µM (inactive) | > 100 µM (inactive) | > 100 µM (inactive) |  | > 100 µM (inactive) | > 100 µM (inactive) | > 100 µM (inactive) | > 100 µM (inactive) | > 100 µM (inactive)
Cc1ncc(CSC(=N)N)n1Cc1ccccc1 |  | > 100 µM (inactive) |  | 51.6 µM (inactive) | 95.7 µM (inactive) | > 100 µM (inactive) | > 100 µM (inactive) | 63.7 µM (inactive) | 55.8 µM (inactive) | 26.1 µM (inactive) | > 100 µM (inactive) | > 100 µM (inactive) | 65.8 µM (inactive) | > 100 µM (inactive) | 30.7 µM (inactive) | > 100 µM (inactive) | 83 µM (inactive) | 25.8 µM (inactive) | 54.5 µM (inactive) | 
